Measurements: patent US9198886B2, “Use of 2,5-dihydroxybenzene for the treatment of ocular diseases” (priority 2006, dated 2015)

Assays:
[1] = system: intestinal inflammatory disease induced by dextran sulfate sodium; test: DSS-induced intestinal inflammatory disease in mice; type: in vivo, mice of strain C57BL/6J-664
Experimental: (§1) The mice were subject to two 7-day cycles of exposure to dextran sulfate sodium (DSS) (from day 1 to 7 and from day 14 to 21) in the drinking water separated by 7 days in which regular water was provided (from 7 to 14). One group was treated with vehicle (0.9% NaCl), another with Solu-Medrol (10 mg/kg/day i.m.), and the other two groups with potassium 2,5-diacetoxybenzene sulfonate (DABS), one of them with 100 mg/kg/day i.p. and the other with 125 mg/kg/day, orally (p.o.). The body weight was normalized on day 0. Data are expressed as the mean+SD of the percentage of the basal weight (day 0) of 10 mice per group.
as §1, with “(p.o.)” for “(p.o.). The body weight was normalized on day 0.”, “mean±SD” for “mean+SD”, “clinical score” for “percentage”, “disease continuously obtained from” for “basal weight (day 0) of”, “per each” for “per”
The induction of the intestinal inflammatory disease described below is a representative model for the evaluation of therapeutic strategies to treat Crohn's disease and ulcerative colitis. 7-8 week old female mice of strain C57BL/6J-664 were used. The intestinal inflammatory disease (HD) was induced by feeding the mice with 3% dextran sulfate sodium (DSS; MW 40,000) dissolved in drinking water in 2 cycles. Each cycle consisted of 7 days with 3% DSS in the drinking water separated by 7 days with regular water. A daily clinical evaluation of the animals was performed in which the body weight, the consistency of the faeces and the presence of blood in the faeces were determined. Thus, the validated score of the clinical activity of the disease was evaluated with a 0 to 6 scale, considering the following parameters: consistency of the faeces, presence or absence of fecal blood and loss of weight.
At the end of the first cycle of exposure to DSS, the mice were divided into the following treatment groups: a first group was administered intraperitoneal (i.p) injections of vehicle (0.9% NaCl). Another group received intramuscular injections of Solu-Medrol, a standard IID treatment, at a dose of 10 mg/kg/day. A third group was administered i.p. injections of potassium 2,5-diacetroxybenzene sulfonate (DABS, 100 mg/kg/day). The last group was treated orally with 125 mg/kg day of DABS.

[2] = system: experimentally induced asthma; test: OVA-induced asthma in mice (methacholine Penh, BAL cell count); type: in vivo, Balb/c mice
Experimental: Effect of potassium 2,5-diacetoxybenzene sulfonate (DABS) on bronchoconstriction in asthmatic mice treated with methacholine. All the mice were exposed to nebulized methacholine (MC; 5 and 20 mg/ml). Bronchoconstriction was determined as the enhanced pause. (Penh), calculated as described in the corresponding example (example 13). As control, the background and the exposure to nebulized saline (0.9% NaCl) are shown. *p<0.05 vs. saline.
Effect of potassium 2,5-diacetoxybenzene sulfonate (DABS) on the inflammatory cell count in the bronchoalveolar lavage (BAL) in asthmatic mice. The data are expressed as mean±SEM of the total number of detected cells in the BAL of the right lung of each animal. *p<0.05, ***p<0.001 vs. group treated with vehicle.
6-9 week old Balb/c mice were used. The ovoalbumin (OVA)/aluminum complex was obtained after dissolving OVA (500 μg/mL) in PBS, and mixing it with an equal volume of 10% aluminum potassium sulfate at pH 6.5 for 1 hour. After centrifuging the pellet (750×g for 5 minutes) the OVA/aluminum pellet was resuspended in distilled water. On day 0, the mice were injected intraperitoneally injected with 100 μg of OVA/aluminum. Eight days later, the mice were anesthetized and exposed to 250 μg of OVA. Later, they were administered 125 μg of OVA on days 15, 18 and 21. […].
The following treatments were administered to the animals: (i.p.) vehicle from day 2, potassium 2,5-diacetoxybencene sulfonate (DABS; 100 mg/kg/day, i.p.) from day 2, DABS (100 mg/kg/day, i.p.) from day 8 and Combivent (20 μg/200 μg in aerosol) on days 20, 21 and 22, the latter as a reference treatment.
In order to evaluate the pulmonary function, the response to methacholine in conscious mice was determined, 24 hours after the last exposure to OVA. The mice were exposed to increasing methacholine concentrations (5 and 20 mg/mL) in the form of aerosol using an ultrasonic nebulizer during 2 minutes. The degree of bronchoconstriction was expressed as the enhanced pause (Penh) which correlates to the mouse air resistance, impedance and pressure within the pleura. The Penh was calculated using the formula Penh=[(Te/Rt−1)×(PEF/PIF)], where Te is expiratory time, Rt is relaxation time, PEF is peak expiratory flow and PIF is peak inspiratory flow×0.67 coefficient.
After measuring airway hyperreactivity, the mice were sacrificed and the bronchoalveolar lavage (BAL) of the right lung was collected. The total number of cells in the BAL fluid was determined.

`CC(=O)Oc1ccc(OC(C)=O)c(S(=O)(=O)[O-])c1.[K+]` [DABS, potassium 2,5-diacetoxybenzene sulfonate] was tested, and the disease clinical score ([1]; 100 mg/kg/day i.p.) was “reduced”, the disease clinical score ([1]; 125 mg/kg/day orally) was “reduced” and the “loss of body weight produced by two cycles of DSS” value ([1]; DABS 100 mg/kg/day i.p. or 125 mg/kg/day p.o., Solu-Medrol 10 mg/kg/day i.m., vs vehicle) was “reduced”. For the same compound, the “efficacy compared with standard treatment Solu-Medrol” value ([1]; body weight and clinical score, Solu-Medrol 10 mg/kg/day i.m.) was “not lower (in some points it is higher)”, the “methacholine induced bronchoconstriction (Penh)” value ([2]; 100 mg/kg/day i.p. from day 2) was “completely prevented” and the “methacholine induced bronchoconstriction (Penh)” value ([2]; 100 mg/kg/day i.p. from day 8) was “completely prevented”. The “presence of BAL cells in asthmatic mice” value ([2]; 100 mg/kg/day i.p., vs vehicle) was “significantly reduced”, the “BAL cell reduction compared with Combivent” value ([2]; DABS 100 mg/kg/day i.p., Combivent aerosol days 20-22) was “even more than the treatment with Combivent” and the “increase of the Penh after exposure to MC vs saline” value ([2]; MC 5 and 20 mg/ml, Combivent 20 μg/200 μg aerosol days 20-22 or DABS 100 mg/kg/day i.p.) was “do not show a significant increase of the Penh”.
